According to patent US9908899B2 (BIOMARIN PHARMACEUTICAL INC., priority 2011, dated 2018):
Read-outs that look alike come from different tables or passages of the source.

What was measured:
HDAC2 = HDAC2 (Homo sapiens (Human), UniProt Q92769); experiment: HDAC activity inhibition assay, HDAC2; assay type: biochemical
Procedure: (§1) The HDAC activity inhibition assay was performed as follows to determine the ability of a test compound to inhibit HDAC enzymatic activity. […] Following pre-incubation, Fluor-de-Lys™ substrate (Enzo Life Sciences, Plymouth Meeting, Pa., BML-KI104-0050) was added to a final concentration of 10 μM and plates were further incubated for 30 minutes at room temperature. […] IC50 values were calculated by using a sigmoidal dose-response (variable slope) equation in GraphPad Prism® 5 for Windows (GraphPad Software, La Jolla, Calif.).

HDAC1 = HDAC1 (Homo sapiens (Human), UniProt Q13547); experiment: HDAC activity inhibition assay, HDAC1; assay type: biochemical; conditions: Table 1; 2 hours pre-incubation
Procedure: as §1

HDAC3/NcoR2 = HDAC3/NcoR2 (Homo sapiens (Human), UniProt O15379); experiment: HDAC activity inhibition assay, HDAC3/NcoR2; assay type: biochemical
Procedure: as §1

[1] = Acid stability determination; assay type: physicochemical; conditions: 100 μM in 0.01 M HCl, 50° C.
Procedure: A 100 μM solution of test compound was prepared by dilution of a 10 mM DMSO stock solution in a 0.01 M solution of HCl in deionized water. Immediately after mixing, an aliquot (100 μL) was sampled and analyzed by HPLC/UV. The area under the compound peak was determined and used as the time zero reference point. The remainder of the acid sample was incubated at 50° C. and samples were taken after 2, 4, and 24 hours of incubation. On a few occasions, samples were taken at 30 rather than 24 hours. These were analyzed by the same HPLC/UV method and the area of the peak corresponding to the test compound was measured. Percent remaining at a given time point was then calculated as the ratio of the area under the peak after incubation to that at time zero times 100. In those cases where a 30 hour time point was recorded, the percent remaining at 24 hours was obtained by interpolation of the percent remaining versus time curve assuming a unimolecular process, i.e. a monoexponential decay. Percent remaining after 24 hours incubation are presented in Tables 2 and 4 below, where A corresponds to more than 60%, B is between 40 and 60%, C covers 20 to 40% and D means less than 20%.

[2] = Table 1, 2 hours pre-incubation

Sequence of HDAC3/NcoR2 (O15379 whole entry): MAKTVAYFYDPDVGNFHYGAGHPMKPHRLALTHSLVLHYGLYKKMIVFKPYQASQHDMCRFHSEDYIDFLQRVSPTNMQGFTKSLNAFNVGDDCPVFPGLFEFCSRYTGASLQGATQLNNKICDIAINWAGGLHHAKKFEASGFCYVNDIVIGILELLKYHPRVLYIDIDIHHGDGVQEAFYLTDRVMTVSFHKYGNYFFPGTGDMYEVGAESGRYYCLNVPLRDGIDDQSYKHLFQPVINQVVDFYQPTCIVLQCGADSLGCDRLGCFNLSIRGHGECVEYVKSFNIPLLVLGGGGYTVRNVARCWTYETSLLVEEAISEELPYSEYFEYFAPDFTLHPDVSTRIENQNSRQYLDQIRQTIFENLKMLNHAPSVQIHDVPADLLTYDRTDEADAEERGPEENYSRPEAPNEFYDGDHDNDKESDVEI
Sequence of HDAC3/NcoR2 (Q9Y618 395-489 partner): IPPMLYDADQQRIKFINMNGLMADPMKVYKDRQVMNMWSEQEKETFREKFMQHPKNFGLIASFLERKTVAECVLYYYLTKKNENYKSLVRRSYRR
Sequence of HDAC1 (Q13547 whole entry): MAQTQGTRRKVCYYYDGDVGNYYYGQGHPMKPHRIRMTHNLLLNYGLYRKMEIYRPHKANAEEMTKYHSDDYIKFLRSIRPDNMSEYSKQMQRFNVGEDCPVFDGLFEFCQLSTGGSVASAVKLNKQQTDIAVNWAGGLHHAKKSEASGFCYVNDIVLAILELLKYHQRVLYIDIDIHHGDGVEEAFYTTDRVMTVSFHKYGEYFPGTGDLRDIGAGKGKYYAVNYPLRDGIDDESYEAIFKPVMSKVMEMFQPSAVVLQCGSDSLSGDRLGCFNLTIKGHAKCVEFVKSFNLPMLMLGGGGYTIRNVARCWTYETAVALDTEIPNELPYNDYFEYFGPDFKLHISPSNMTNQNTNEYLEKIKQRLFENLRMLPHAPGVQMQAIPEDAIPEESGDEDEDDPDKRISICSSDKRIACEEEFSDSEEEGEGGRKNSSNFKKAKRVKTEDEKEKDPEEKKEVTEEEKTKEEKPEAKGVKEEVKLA
Sequence of HDAC2 (Q92769 whole entry): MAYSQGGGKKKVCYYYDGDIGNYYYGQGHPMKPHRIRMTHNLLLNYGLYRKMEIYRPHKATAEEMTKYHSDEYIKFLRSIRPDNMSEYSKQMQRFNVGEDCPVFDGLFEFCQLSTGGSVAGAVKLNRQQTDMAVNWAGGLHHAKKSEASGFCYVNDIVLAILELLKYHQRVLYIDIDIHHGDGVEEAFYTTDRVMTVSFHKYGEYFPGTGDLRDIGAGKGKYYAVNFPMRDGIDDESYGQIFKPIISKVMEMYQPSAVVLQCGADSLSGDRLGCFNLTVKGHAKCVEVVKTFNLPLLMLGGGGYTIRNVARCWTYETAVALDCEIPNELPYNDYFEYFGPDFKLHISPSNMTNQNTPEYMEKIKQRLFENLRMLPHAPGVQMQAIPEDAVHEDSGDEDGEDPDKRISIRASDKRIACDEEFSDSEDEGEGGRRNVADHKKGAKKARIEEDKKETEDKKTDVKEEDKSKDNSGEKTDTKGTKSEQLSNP

Compound	IC50 (HDAC2; [2]) [nM]	IC50 (HDAC1) [nM]	IC50 (HDAC3/NcoR2; [2]) [nM]	IC50 (HDAC2) [nM]	IC50 (HDAC3/NcoR2) [nM]	acid stability (percent remaining after 24 hours incubation) [1]
Nc1ccccc1NC(=O)/C=C/c1cnn(CCOc2cc(F)cc(Cl)c2)c1 [B5, (E)-N-(2-aminophenyl)-3-(1-(2-(3-chloro-5-fluorophenoxy)ethyl)-1H-pyrazol-4-yl)acrylamide]	< 1000	< 1000	< 1000	–	–	–
Nc1ccccc1NC(=O)/C=C/c1cnn(CCOc2cc(F)cc(F)c2)c1 [B3, (E)-N-(2-aminophenyl)-3-(1-(2-(3,5-difluorophenoxy)ethyl)-1H-pyrazol-4-yl)acrylamide]	< 1000	< 1000	< 1000	–	–	–
Cn1cc(/C=C/C(=O)Nc2ccc(F)cc2N)cn1 [C2]	–	–	–	> 20000	1000 to 5000	–
Nc1ccccc1NC(=O)c1ccc(C=C2CN(Cc3ccc4cc[nH]c4c3)C2)c(Cl)c1 [F5, 4-((1-((1H-indol-6-yl)methyl)azetidin-3-ylidene)methyl)-N-(2-aminophenyl)-3-chlorobenzamide]	1000 to 5000	< 1000	< 1000	–	–	–
Nc1ccccc1NC(=O)/C=C/c1cnn(-c2ccccc2)c1 [A11]	1000 to 5000	1000 to 5000	< 1000	–	–	A (A corresponds to more than 60%)
Cn1cnc(/C=C/C(=O)Nc2ccccc2N)c1 [A12]	5000 to 10000	1000 to 5000	< 1000	–	–	–
CN(CCCn1cc(/C=C/C(=O)Nc2ccccc2N)cn1)c1ccccc1 [D12]	–	–	–	–	–	A (A corresponds to more than 60%)
Nc1ccccc1NC(=O)/C=C/c1cnn(C/C=C/c2ccc(F)cc2)c1 [B2]	1000 to 5000	< 1000	< 1000	–	–	–
Cc1ncc(/C=C/C(=O)Nc2ccccc2N)s1 [A3]	5000 to 10000	5000 to 10000	< 1000	–	–	–
Nc1ccccc1NC(=O)/C=C/c1cnn(CCc2c[nH]c3ccccc23)c1 [D13]	< 1000	< 1000	< 1000	–	–	–
Nc1ccccc1NC(=O)c1ccc(C=C2CCN(C(=O)OCc3ccccc3)CC2)cc1 [F1]	1000 to 5000	< 1000	< 1000	–	–	B (B is between 40 and 60%)
Nc1ccccc1NC(=O)/C=C/c1cnn(CC2CC2)c1 [B1]	5000 to 10000	1000 to 5000	< 1000	–	–	–
Nc1cc(F)ccc1NC(=O)/C=C/c1cnn(CCOc2ccccc2)c1 [D16]	1000 to 5000	1000 to 5000	< 1000	–	–	–
Cc1nc(/C=C/C(=O)Nc2ccccc2N)cs1 [A1]	5000 to 10000	1000 to 5000	< 1000	–	–	–
Nc1ccccc1NC(=O)/C=C/c1cnn(CCOc2ccc(F)cc2)c1 [B6]	< 1000	< 1000	< 1000	–	–	–
Nc1ccccc1NC(=O)/C=C/c1cc2ccccn2n1 [A8]	1000 to 5000	< 1000	< 1000	–	–	B (B is between 40 and 60%)
Cn1cc(/C=C/C(=O)Nc2ccccc2N)cn1 [A2]	10000 to 20000	5000 to 10000	< 1000	–	–	B (B is between 40 and 60%)
Cc1cc(/C=C/C(=O)Nc2ccccc2N)on1 [A5]	10000 to 20000	10000 to 20000	< 1000	–	–	B (B is between 40 and 60%)
Nc1ccccc1NC(=O)/C=C/c1cnn(CCOc2ccc(C(F)(F)F)cc2)c1 [B4]	1000 to 5000	< 1000	< 1000	–	–	–
CCn1cc(/C=C/C(=O)Nc2ccccc2N)cn1 [C1]	1000 to 5000	1000 to 5000	< 1000	–	–	–
Nc1ccccc1NC(=O)/C=C/c1cnn(Cc2ccc(F)cc2)c1 [D5]	1000 to 5000	< 1000	< 1000	–	–	–
Cc1nc(/C=C/C(=O)Nc2ccccc2N)co1 [A4]	> 20000	> 20000	1000 to 5000	–	–	–
Nc1ccccc1NC(=O)c1ccc(C=C2CN(Cc3cccnc3)C2)c(Cl)c1 [F6]	1000 to 5000	–	–	–	–	–
Nc1ccccc1NC(=O)/C=C/c1cn2ccnc2s1 [A10]	1000 to 5000	1000 to 5000	< 1000	–	–	–
Cn1ccc(/C=C/C(=O)Nc2ccccc2N)n1 [A7]	1000 to 5000	1000 to 5000	< 1000	–	–	–
Nc1ccccc1NC(=O)/C=C/c1cnc2ccccn12 [A6, (E)-N-(2-aminophenyl)-3-(imidazo[1,2-a]pyridin-3-yl)acrylamide]	5000 to 10000	5000 to 10000	< 1000	–	–	–
Nc1ccccc1NC(=O)/C=C/c1csc(C/C=C/c2ccccc2)n1 [E2, (E)-N-(2-aminophenyl)-3-(2-cinnamylthiazol-4-yl)acrylamide]	1000 to 5000	< 1000	< 1000	–	–	A (A corresponds to more than 60%)
Nc1ccccc1NC(=O)/C=C/c1cnn(CCCOc2ccccc2)c1 [D15]	< 1000	< 1000	< 1000	–	–	–
Nc1ccccc1NC(=O)/C=C/c1cn2ccccc2n1 [A9]	1000 to 5000	1000 to 5000	< 1000	–	–	–
CCOCc1cn2cc(/C=C/C(=O)Nc3ccccc3N)sc2n1 [E1, (E)-N-(2-aminophenyl)-3-(6-(ethoxymethyl)imidazo[2,1-b]thiazol-2-yl)acrylamide]	5000 to 10000	1000 to 5000	< 1000	–	–	–
